Data from PubChem BioAssay (NCI).
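Each compound was tested at five concentrations against cells in 96-well plates for 48 hours. At the GI50, growth is halved. The concentration for full growth arrest is given as TGI.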

How the values were obtained:
Experiment in all cases: NCI-60 cell line screen, 48 h
786-0 renal = test system: 786-0 renal
A498 renal = test system: A498 renal
A549 NSCLC = test system: A549 NSCLC
ACHN renal = test system: ACHN renal
BT-549 breast = test system: BT-549 breast
CAKI-1 renal = test system: CAKI-1 renal
CCRF-CEM leukemia = test system: CCRF-CEM leukemia
COLO 205 colon = test system: COLO 205 colon
DU-145 prostate = test system: DU-145 prostate
EKVX NSCLC = test system: EKVX NSCLC
HCC-2998 colon = test system: HCC-2998 colon
HCT-116 colon = test system: HCT-116 colon
HCT-15 colon = test system: HCT-15 colon
HL-60(TB) leukemia = test system: HL-60(TB) leukemia
HOP-62 NSCLC = test system: HOP-62 NSCLC
HOP-92 NSCLC = test system: HOP-92 NSCLC
HS 578T breast = test system: HS 578T breast
HT29 colon = test system: HT29 colon
IGROV1 ovarian = test system: IGROV1 ovarian
K-562 leukemia = test system: K-562 leukemia
KM12 colon = test system: KM12 colon
LOX IMVI melanoma = test system: LOX IMVI melanoma
M14 melanoma = test system: M14 melanoma
MALME-3M melanoma = test system: MALME-3M melanoma
MCF7 breast = test system: MCF7 breast
MDA-MB-231 breast = test system: MDA-MB-231 breast
MDA-MB-435 = test system: MDA-MB-435
MOLT-4 leukemia = test system: MOLT-4 leukemia
NCI-H226 lung = test system: NCI-H226 lung
NCI-H23 lung = test system: NCI-H23 lung
NCI-H460 lung = test system: NCI-H460 lung
NCI-H522 lung = test system: NCI-H522 lung
NCI/ADR-RES ovarian = test system: NCI/ADR-RES ovarian
OVCAR-3 ovarian = test system: OVCAR-3 ovarian
OVCAR-4 ovarian = test system: OVCAR-4 ovarian
OVCAR-5 ovarian = test system: OVCAR-5 ovarian
OVCAR-8 ovarian = test system: OVCAR-8 ovarian
PC-3 prostate = test system: PC-3 prostate
RPMI-8226 leukemia = test system: RPMI-8226 leukemia
RXF 393 renal = test system: RXF 393 renal
SF-268 CNS = test system: SF-268 CNS
SF-295 CNS = test system: SF-295 CNS
SK-MEL-2 melanoma = test system: SK-MEL-2 melanoma
SK-MEL-28 melanoma = test system: SK-MEL-28 melanoma
SK-MEL-5 melanoma = test system: SK-MEL-5 melanoma
SK-OV-3 ovarian = test system: SK-OV-3 ovarian
SN12C renal = test system: SN12C renal
SNB-19 CNS = test system: SNB-19 CNS
SNB-75 CNS = test system: SNB-75 CNS
SR leukemia = test system: SR leukemia
SW-620 colon = test system: SW-620 colon
T-47D breast = test system: T-47D breast
TK-10 renal = test system: TK-10 renal
U251 CNS = test system: U251 CNS
UACC-257 melanoma = test system: UACC-257 melanoma
UACC-62 melanoma = test system: UACC-62 melanoma
UO-31 renal = test system: UO-31 renal
SF-539 CNS = test system: SF-539 CNS

Molecule CC12OC(CC(O)C1O)n1c3ccccc3c3c4c(c5c6ccccc6n2c5c31)C(=O)N(CCN1CCCC1)C4=O (centres undefined) has a GI50 (786-0 renal) of 1.29 µM, a TGI (786-0 renal) of 6.36 µM and a GI50 (A498 renal) of 1.5 µM. It also gave a TGI (A498 renal) of 7.5 µM, a GI50 (A549 NSCLC) of 0.282 µM and a TGI (A549 NSCLC) of 6.17 µM. The GI50 (ACHN renal) was 0.336 µM, the TGI (ACHN renal) was 2.34 µM and the GI50 (BT-549 breast) was 3.85 µM. For the same molecule, the TGI (BT-549 breast) was 11.5 µM, the GI50 (CAKI-1 renal) was 1.41 µM and the TGI (CAKI-1 renal) was 9.01 µM. For the same molecule, the GI50 (CCRF-CEM leukemia) was 0.936 µM, the TGI (CCRF-CEM leukemia) was 10.7 µM and the GI50 (COLO 205 colon) was 0.377 µM. It also gave a TGI (COLO 205 colon) of 6.16 µM, a GI50 (DU-145 prostate) of 1.06 µM and a TGI (DU-145 prostate) of 5.82 µM. For the same molecule, the GI50 (EKVX NSCLC) was 1.67 µM, the TGI (EKVX NSCLC) was 9.64 µM and the GI50 (HCC-2998 colon) was 3.96 µM. For the same molecule, the TGI (HCC-2998 colon) was 10.8 µM, the GI50 (HCT-116 colon) was 0.321 µM and the TGI (HCT-116 colon) was 6.35 µM. For the same molecule, the GI50 (HCT-15 colon) was 1 µM, the TGI (HCT-15 colon) was 6.77 µM and the GI50 (HL-60(TB) leukemia) was 0.562 µM. It also gave a TGI (HL-60(TB) leukemia) of 8.7 µM, a GI50 (HOP-62 NSCLC) of 0.424 µM and a TGI (HOP-62 NSCLC) of 5.71 µM. The GI50 (HOP-92 NSCLC) was 3.85 µM, the TGI (HOP-92 NSCLC) was 10.3 µM and the GI50 (HS 578T breast) was 3.05 µM. For the same molecule, the TGI (HS 578T breast) was 13.8 µM, the GI50 (HT29 colon) was 0.434 µM and the TGI (HT29 colon) was 7.07 µM. The GI50 (IGROV1 ovarian) was 0.951 µM, the TGI (IGROV1 ovarian) was 10.8 µM and the GI50 (K-562 leukemia) was 0.68 µM. It also gave a TGI (K-562 leukemia) of 19.4 µM, a GI50 (KM12 colon) of 1.3 µM and a TGI (KM12 colon) of 8.68 µM. The GI50 (LOX IMVI melanoma) was 0.308 µM, the TGI (LOX IMVI melanoma) was 1.45 µM and the GI50 (M14 melanoma) was 1.23 µM. For the same molecule, the TGI (M14 melanoma) was 7.64 µM, the GI50 (MALME-3M melanoma) was 1.3 µM and the TGI (MALME-3M melanoma) was 8.41 µM. The GI50 (MCF7 breast) was 0.199 µM, the TGI (MCF7 breast) was 5.88 µM and the GI50 (MDA-MB-231 breast) was 3.38 µM. The TGI (MDA-MB-231 breast) was 11.2 µM, the GI50 (MDA-MB-435) was 1.7 µM and the TGI (MDA-MB-435) was 8.11 µM. For the same molecule, the GI50 (MOLT-4 leukemia) was 0.197 µM, the TGI (MOLT-4 leukemia) was 16.5 µM and the GI50 (NCI-H226 lung) was 1.42 µM. The TGI (NCI-H226 lung) was 11.4 µM, the GI50 (NCI-H23 lung) was 1.24 µM and the TGI (NCI-H23 lung) was 7.95 µM. For the same molecule, the GI50 (NCI-H460 lung) was 0.161 µM, the TGI (NCI-H460 lung) was 1.06 µM and the GI50 (NCI-H522 lung) was 0.606 µM. It also gave a TGI (NCI-H522 lung) of 5.4 µM, a GI50 (NCI/ADR-RES ovarian) of 6.31 µM and a TGI (NCI/ADR-RES ovarian) of 14.5 µM. The GI50 (OVCAR-3 ovarian) was 1.77 µM, the TGI (OVCAR-3 ovarian) was 8.95 µM and the GI50 (OVCAR-4 ovarian) was 1.88 µM. It also gave a TGI (OVCAR-4 ovarian) of 12.3 µM, a GI50 (OVCAR-5 ovarian) of 2.25 µM and a TGI (OVCAR-5 ovarian) of 14.9 µM. For the same molecule, the GI50 (OVCAR-8 ovarian) was 1.1 µM, the TGI (OVCAR-8 ovarian) was 9.12 µM and the GI50 (PC-3 prostate) was 1.79 µM. For the same molecule, the TGI (PC-3 prostate) was 9.13 µM, the GI50 (RPMI-8226 leukemia) was 1.32 µM and the TGI (RPMI-8226 leukemia) was 4.43 µM. For the same molecule, the GI50 (RXF 393 renal) was 1.23 µM, the TGI (RXF 393 renal) was 7.25 µM and the GI50 (SF-268 CNS) was 0.789 µM. It also gave a TGI (SF-268 CNS) of 8.47 µM, a GI50 (SF-295 CNS) of 0.291 µM and a TGI (SF-295 CNS) of 5.96 µM. It also gave a GI50 (SK-MEL-2 melanoma) of 5.16 µM, a TGI (SK-MEL-2 melanoma) of 12.9 µM and a GI50 (SK-MEL-28 melanoma) of 2.24 µM. For the same molecule, the TGI (SK-MEL-28 melanoma) was 9.7 µM, the GI50 (SK-MEL-5 melanoma) was 1.22 µM and the TGI (SK-MEL-5 melanoma) was 7.12 µM. The GI50 (SK-OV-3 ovarian) was 1.57 µM, the TGI (SK-OV-3 ovarian) was 6.99 µM and the GI50 (SN12C renal) was 0.577 µM. For the same molecule, the TGI (SN12C renal) was 6.64 µM, the GI50 (SNB-19 CNS) was 1.25 µM and the TGI (SNB-19 CNS) was 9.29 µM. It also gave a GI50 (SNB-75 CNS) of 0.879 µM, a TGI (SNB-75 CNS) of 6.71 µM and a GI50 (SR leukemia) of 0.149 µM. It also gave a TGI (SR leukemia) of 6.08 µM, a GI50 (SW-620 colon) of 0.31 µM and a TGI (SW-620 colon) of 7.22 µM. The GI50 (T-47D breast) was 0.868 µM, the TGI (T-47D breast) was 7.94 µM and the GI50 (TK-10 renal) was 1.21 µM. The TGI (TK-10 renal) was 10.4 µM, the GI50 (U251 CNS) was 0.488 µM and the TGI (U251 CNS) was 6.51 µM. The GI50 (UACC-257 melanoma) was 3.54 µM, the TGI (UACC-257 melanoma) was 11.8 µM and the GI50 (UACC-62 melanoma) was 0.513 µM. The TGI (UACC-62 melanoma) was 2.58 µM, the GI50 (UO-31 renal) was 1.5 µM and the TGI (UO-31 renal) was 9.95 µM.
COc1ccc(-n2c(N)c(C#N)c(C#N)c2-c2cccc([N+](=O)[O-])c2)cc1 gave a TGI (786-0 renal) greater than 100 µM, a TGI (A498 renal) greater than 100 µM and a TGI (A549 NSCLC) of 68.7 µM. The TGI (ACHN renal) was greater than 100 µM, the TGI (BT-549 breast) was greater than 100 µM and the TGI (CAKI-1 renal) was greater than 100 µM. For the same molecule, the TGI (CCRF-CEM leukemia) was greater than 100 µM, the TGI (COLO 205 colon) was greater than 100 µM and the TGI (DU-145 prostate) was greater than 100 µM. For the same molecule, the TGI (EKVX NSCLC) was greater than 100 µM, the TGI (HCC-2998 colon) was greater than 100 µM and the TGI (HCT-15 colon) was greater than 100 µM. For the same molecule, the TGI (HL-60(TB) leukemia) was greater than 100 µM, the TGI (HOP-62 NSCLC) was greater than 100 µM and the TGI (HOP-92 NSCLC) was greater than 100 µM. The TGI (HS 578T breast) was greater than 100 µM, the TGI (HT29 colon) was greater than 100 µM and the TGI (IGROV1 ovarian) was greater than 100 µM. It also gave a TGI (K-562 leukemia) greater than 100 µM, a TGI (KM12 colon) greater than 100 µM and a TGI (LOX IMVI melanoma) greater than 100 µM. For the same molecule, the TGI (M14 melanoma) was greater than 100 µM, the TGI (MALME-3M melanoma) was greater than 100 µM and the TGI (MCF7 breast) was greater than 100 µM. The TGI (MDA-MB-231 breast) was greater than 100 µM, the TGI (MDA-MB-435) was greater than 100 µM and the TGI (MOLT-4 leukemia) was 44.8 µM. For the same molecule, the TGI (NCI-H226 lung) was greater than 100 µM, the TGI (NCI-H23 lung) was greater than 100 µM and the TGI (NCI-H522 lung) was greater than 100 µM. The TGI (NCI/ADR-RES ovarian) was greater than 100 µM, the TGI (OVCAR-3 ovarian) was greater than 100 µM and the TGI (OVCAR-4 ovarian) was greater than 100 µM. For the same molecule, the TGI (OVCAR-5 ovarian) was greater than 100 µM, the TGI (OVCAR-8 ovarian) was greater than 100 µM and the TGI (PC-3 prostate) was greater than 100 µM. It also gave a TGI (RPMI-8226 leukemia) greater than 100 µM, a TGI (RXF 393 renal) of 65.1 µM and a TGI (SF-268 CNS) greater than 100 µM. For the same molecule, the TGI (SF-295 CNS) was greater than 100 µM, the TGI (SF-539 CNS) was greater than 100 µM and the TGI (SK-MEL-2 melanoma) was 8.68 µM. The TGI (SK-MEL-5 melanoma) was greater than 100 µM, the TGI (SK-OV-3 ovarian) was greater than 100 µM and the TGI (SN12C renal) was greater than 100 µM. The TGI (SNB-19 CNS) was greater than 100 µM, the TGI (SNB-75 CNS) was greater than 100 µM and the TGI (SR leukemia) was greater than 100 µM. The TGI (SW-620 colon) was greater than 100 µM, the TGI (T-47D breast) was greater than 100 µM and the TGI (TK-10 renal) was greater than 100 µM. The TGI (U251 CNS) was greater than 100 µM, the TGI (UACC-257 melanoma) was greater than 100 µM and the TGI (UACC-62 melanoma) was greater than 100 µM. It also gave a TGI (UO-31 renal) greater than 100 µM.
